In patent publication US11091451B2, “SHMT inhibitors and uses thereof” (Raze Therapeutics, Inc., priority 2016, dated 2021):

Experiments:
[1] = target: Human mitochondrial SHMT2 (Homo sapiens (Human), UniProt P34897); assay: SHMT2 activity inhibition assay (serine production from glycine and CH2-THF, mass spectroscopy); assay type: biochemical; settings: 60 minutes at room temperature
Description: (§1) Full length human cytosolic Serine Hydroxymethyl transferase 1 (SHMT1, residues 1-483 in Uniport ID P34896) was expressed as an N-terminal His6 tagged protein and purified in E. coli using nickel capture followed by size-exclusion chromatography. Human mitochondrial SHMT2 (residues 30-504 in Uniprot ID P34897) with mitochondrial leader sequence deleted was expressed as an N-terminal His6 tagged protein and purified in E. coli using nickel capture followed by size-exclusion chromatography.
Serine hydroxymethyltransferases catalyze the reversible hydroxymethylation of glycine to serine, with methylene tetrahydrofolate (CH2-THF) providing the additional carbon. SHMT1 and SHMT2 activity was determined by measuring serine production from glycine and CH2-THF using mass spectroscopy. Briefly, 15 ul of 0.5 mM glycine and 0.2 mM CH2-THF in 20 mM TEA, pH8.0, 0.2 mM NADPH were added to 384 well plate containing 0, 0.05 mM, 0.005 mM or 0.0005 mM of inhibitor. […] The plate was incubated for 60 minutes at room temperature and the reaction was quenched by the addition of 30 ul of 10% trichloroacetic acid. Serine produced was analyzed using Rapidfire 360 and API4000^+ in the positive ion mode.

[2] = target: human cytosolic Serine Hydroxymethyl transferase 1 (SHMT1) (Homo sapiens (Human), UniProt P34896); assay: SHMT1 activity inhibition assay (serine production from glycine and CH2-THF, mass spectroscopy); assay type: biochemical; settings: 60 minutes at room temperature
Description: as §1
Serine hydroxymethyltransferases catalyze the reversible hydroxymethylation of glycine to serine, with methylene tetrahydrofolate (CH2-THF) providing the additional carbon. SHMT1 and SHMT2 activity was determined by measuring serine production from glycine and CH2-THF using mass spectroscopy. Briefly, 15 ul of 0.5 mM glycine and 0.2 mM CH2-THF in 20 mM TEA, pH8.0, 0.2 mM NADPH were added to 384 well plate containing 0, 0.05 mM, 0.005 mM or 0.0005 mM of inhibitor. 15 ul of SHMT1 or 2 were added to initiate the reaction. The plate was incubated for 60 minutes at room temperature and the reaction was quenched by the addition of 30 ul of 10% trichloroacetic acid. Serine produced was analyzed using Rapidfire 360 and API4000^+ in the positive ion mode.

Human mitochondrial SHMT2, sequence (P34897 30-504): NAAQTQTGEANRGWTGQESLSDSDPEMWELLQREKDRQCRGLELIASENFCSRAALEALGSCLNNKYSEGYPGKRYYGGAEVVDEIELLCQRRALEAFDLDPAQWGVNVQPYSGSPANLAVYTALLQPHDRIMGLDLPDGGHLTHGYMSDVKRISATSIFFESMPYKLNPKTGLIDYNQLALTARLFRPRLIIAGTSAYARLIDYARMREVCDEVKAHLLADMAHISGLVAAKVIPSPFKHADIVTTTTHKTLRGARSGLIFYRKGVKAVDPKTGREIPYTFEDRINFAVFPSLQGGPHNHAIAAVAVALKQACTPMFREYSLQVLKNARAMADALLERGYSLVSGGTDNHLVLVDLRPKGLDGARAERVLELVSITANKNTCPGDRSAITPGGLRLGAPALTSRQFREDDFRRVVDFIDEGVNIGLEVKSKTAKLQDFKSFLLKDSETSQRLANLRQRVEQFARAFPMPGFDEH
human cytosolic Serine Hydroxymethyl transferase 1 (SHMT1), sequence (P34896 whole entry): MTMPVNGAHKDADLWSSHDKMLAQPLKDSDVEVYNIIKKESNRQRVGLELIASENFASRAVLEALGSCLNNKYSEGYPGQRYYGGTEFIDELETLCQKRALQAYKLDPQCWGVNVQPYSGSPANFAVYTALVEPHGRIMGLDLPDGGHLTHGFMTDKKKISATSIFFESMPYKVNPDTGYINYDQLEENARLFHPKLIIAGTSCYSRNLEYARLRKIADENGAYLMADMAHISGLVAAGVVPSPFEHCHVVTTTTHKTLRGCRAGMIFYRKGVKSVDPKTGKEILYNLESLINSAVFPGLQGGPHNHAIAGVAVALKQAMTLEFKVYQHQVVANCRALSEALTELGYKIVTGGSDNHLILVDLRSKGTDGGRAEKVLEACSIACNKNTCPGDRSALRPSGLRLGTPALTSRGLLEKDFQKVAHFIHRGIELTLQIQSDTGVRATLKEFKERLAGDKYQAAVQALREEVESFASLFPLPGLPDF

IC50 [1] [µM] | IC50 [2] [µM] | SMILES
100 to 500 | 100 to 500 | NC(=O)Cc1cc(Cl)ccc1-c1nc(CC(=O)NCC(=O)O)cs1 [Compound I-65, 2-(2-[2-[2-(carbamoylmethyl)-4-chlorophenyl]-1,3-thiazol-4-yl]acetamido)acetic Acid]
1 to 10 | 10 to 100 | Cc1sc(-c2ccc(Cl)cc2Cl)nc1CC(=O)NC(C)(C)C(=O)O [Compound I-33]
1 to 10 | 10 to 100 | O=C(Cc1csc(-c2ccc3c(c2)OCCO3)n1)NC1(C(=O)O)CCC1 [Compound I-37]
100 to 500 | 100 to 500 | CSCC[C@H](NC(=O)Cc1csc(-c2ccc(Cl)cc2Cl)n1)C(=O)O [Compound I-48]
1 to 10 | < 1 | CC(C)(NC(=O)Cc1csc(-c2ccc3c(c2-c2ccccc2)OCCO3)n1)C(=O)O [Compound I-2, 2-Methyl-2-[[2-[2-(5-phenyl-2,3-dihydro-1,4-benzodioxin-6-yl)thiazol-4-yl]acetyl]amino] propanoic Acid]
1 to 10 | 10 to 100 | CC(C)(NC(=O)Cc1csc(-c2ccc(Cl)cc2C2CC2)n1)C(=O)O [Compound I-26]
< 1 | < 1 | CC(C)(NC(=O)Cc1csc(-c2ccc(Cl)cc2-c2cccc(Cl)c2)n1)C(=O)O [Compound I-6]
100 to 500 | 100 to 500 | O=C(Cc1csc(-c2ccccc2Cl)n1)N[C@@H](Cc1ccccc1)C(=O)O [Compound I-69]
10 to 100 | 10 to 100 | O=C(O)CNC(=O)Cc1csc(-c2ccc(Cl)c(-c3ccccc3)c2)n1 [Compound I-36]
< 1 | 1 to 10 | CC(C)(NC(=O)Cc1cncc(-c2ccc(Cl)cc2-c2ccccc2)c1)C(=O)O [Compound I-17, 2-[[2-[5-(4-Chloro-2-phenyl-phenyl)-3-pyridyl]acetyl]amino]-2-methyl-propanoic Acid]
< 1 | 1 to 10 | CC(C)(NC(=O)Cc1csc(-c2ccc(Cl)cc2C2CCOCC2)n1)C(=O)O [Compound I-16, 2-[[2-[2-(4-Chloro-2-tetrahydropyran-4-yl-phenyl)thiazol-4-yl]acetyl]amino]-2-methyl-propanoic Acid]
100 to 500 | 100 to 500 | CC(C)c1ccc(-c2nc(CC(=O)N[C@@H](Cc3ccccc3)C(=O)O)cs2)cc1 [Compound I-56]
100 to 500 | 100 to 500 | O=C(O)CNC(=O)Cc1csc(-c2ccc(Cl)cc2CCO)n1 [Compound I-70, 2-(2-[2-[4-chloro-2-(2-hydroxyethyl)phenyl]-1,3-thiazol-4-yl]acetamido) acetic Acid]
< 1 | < 1 | COc1cc(-c2nc(CC(=O)NC(C)(C)C(=O)O)cs2)c(-c2ccccc2)cc1Cl [Compound I-8, 2-[[2-[2-(4-chloro-5-methoxy-2-phenyl-phenyl)thiazol-4-yl]acetyl]amino]-2-methyl-propanoic Acid]
100 to 500 | 10 to 100 | O=C(Cc1csc(-c2ccc(Cl)cc2Cl)n1)N[C@@H](Cc1ccccc1)C(=O)O [Compound I-42]
10 to 100 | 10 to 100 | CC(NC(=O)Cc1csc(-c2cccc(Br)c2)n1)C(=O)O (stereo not shown) [Compound I-43]
< 1 | 1 to 10 | CC(C)(NC(=O)Cc1csc(-c2ccc(Cl)cc2-c2cccc3c2CCC3)n1)C(=O)O [Compound I-14]
100 to 500 | 100 to 500 | O=C(O)CNC(=O)Cc1csc(-c2ccc(OC(F)(F)F)cc2)n1 [Compound I-50]
< 1 | 1 to 10 | CC(C)(NC(=O)Cc1cccc(-c2ccc(Cl)cc2-c2ccccc2)n1)C(=O)O [Compound I-18]
100 to 500 | 100 to 500 | CC(C)c1ccc(-c2nc(CC(=O)N[C@@H](Cc3c[nH]c4ccccc34)C(=O)O)cs2)cc1 [Compound I-51]
